From patent publication US20020197714A1, “Composition and method for increasing cell density in cell cultures infected with lentivirus” (Wyeth, priority 2001, published 2002)

Tested on: Fet-J cells chronically infected with feline immunodeficiency virus (FIV)
Test: Cell density of FIV-infected Fet-J suspension cultures supplemented with antibiotics (trypan blue exclusion on hemacytometer)
Assay type: cell-based
Conditions: for Cell density Day 1 / Cell density Day 2 / Cell density Day 3 / Cell density Day 4 / Cell density Day 5: antibiotic 30 micrograms/mL in serum free media, planted at 3×10^5 viable cells/mL; for Effect on growth / cell density compared with cultures without antibiotic (in words): antibiotic 30 micrograms/mL, Days 1-5
Procedure: In this example, Fet-J cells chronically infected with feline immunodeficiency virus (FIV) were grown in serum free media such as modified DMEM:F12 Media or AIM V media, supplemented with 2.5 mg/mL of ALBUMAX®, which is derived from BSA. Cells were grown in suspension in Erlenmeyer flasks on a rotary shaker at 150 rpm at 37° C. Cells were planted at a cell density of 3×10^5 viable cells/mL. Cell densities were determined by trypan blue exclusion on hemacytometer. Gp 120 expression determination was accomplished by enzyme linked immunosorbent assay (ELISA) using anti-FIV Gp 120 monoclonal antibodies. The antibiotics assessed for FIV supplementation included gentamycin, neomycin and polymixin B. Media were spiked with respective antibiotics at a concentration of 30 micrograms/mL. Cell densities were determined on a 24 hour basis by the method described above.

## polymixin B
  Cell density Day 1: 2.9 × 10^5 cell/mL
  Cell density Day 2: 4.6 × 10^5 cell/mL
  Cell density Day 3: 5.8 × 10^5 cell/mL
  Cell density Day 4: 6.6 × 10^6 cell/mL
  Cell density Day 5: 6.6 × 10^5 cell/mL
  Effect on growth / cell density compared with cultures without antibiotic (in words): suppressed cell density

## neomycin
  Cell density Day 1: 4.7 × 10^5 cell/mL
  Cell density Day 2: 7.8 × 10^5 cell/mL
  Cell density Day 3: 1.2 × 10^6 cell/mL
  Cell density Day 4: 1.3 × 10^6 cell/mL
  Cell density Day 5: 1.8 × 10^6 cell/mL
  Effect on growth / cell density compared with cultures without antibiotic (in words): best overall growth and increase in cell densities

## gentamycin
  Cell density Day 1: 2.4 × 10^5 cell/mL
  Cell density Day 2: 3.2 × 10^5 cell/mL
  Cell density Day 3: 6.5 × 10^5 cell/mL
  Cell density Day 4: 1.1 × 10^6 cell/mL
  Cell density Day 5: 1.1 × 10^6 cell/mL
  Effect on growth / cell density compared with cultures without antibiotic (in words): no significant effect
